Values joined by “and” are separate entries in the source; they are usually repeats but may differ in a detail not shown here. Equal entries are not always repeated. No end group written: not given here.
Test system: C. albicans strain SC5314
Test: crystal violet based biofilm assay (24 hours, OD600)
Assay type: cell-based, Candida albicans
Settings: for Mean Normalized to vehicle control: biofilm OD600 values normalized to vehicle control, 24 hours; for efficacy in inhibiting formation of biofilm relative to PYY13-36: in vitro, Candida albicans
Procedure: FIG. 13. […] Biofilm formation was measured in an assay that quantitates biofilms by staining with a crystal violet dye. The amount of dye absorbed by the biofilm positively correlates with amount of biofilm present. Amount of dye is measured via an optical density reading at a wavelength of 600 nm (OD600). Biofilm formation is measured over 24 hours in the presence or absence of peptides at 10, 30, or 40 uM concentrations.
Candida albicans (sc3514 cited in: Romanowski et al. PLOS One 7: e30119, 2012.: incorporated by reference in its entirety) and Candida tropicalis (ATCC #13803) were maintained in frozen glycerol stocks at −80° C. and streaked out on yeast-peptone-dextrose (YPD) agar plates for 48 hours at 30° C. prior to use. Single colonies were selected and cultured in YPD media at 30° C. Biofilm assays were performed using crystal violet straining (Taff et al. Med Mycol 50:214-218, 2012.: incorporated by reference in its entirety) in the presence of 10-20 uM of respective peptides. To induce hyphal growth, strains were placed in YPD+5% FBS or RPMI media at 37° C. for 4 hours. To image hyphal membrane disruption, the DNA binding fluorescent dye, propidium iodide (PI), was added to wells strains in the presence of peptides and imaged under bright field and far red fluorescent conditions. […] To investigate Candida albican virulence gene expression, 10 μL of a 1.0 OD600 culture were placed in 1 mL RPMI at 37° C. with shaking for 8 hours. Cultures were centrifuged at 3000×g for 5 minutes and RNA isolation was performed as described below.
Antifungal activity of peptides described in this application was tested by performing a crystal violet based biofilm assay. In this assay, Candida albicans is induced to form a biofilm in a 96-well plate for 24 hours in the presence or absence of peptide. Biofilm formation is quantitated through crystal violet staining and solubilization followed by optical density reading. […] Data are OD600 values normalized to appropriate within experiment vehicle control. Statistical analysis was performed via 2-Way ANOVA with multiple comparisons post-test. Significance is denoted by: *=p<0.05; **=p<0.01; ***-p<0.001; ****=p<0.0001. ns=not significant.

Row | Substance | Mean Normalized to vehicle control (10 μM peptide) | Mean Normalized to vehicle control (30 μM peptide) | Mean Normalized to vehicle control (40 μM peptide) | inhibition of biofilm formation at concentrations lower than PYY13-36 | efficacy in inhibiting formation of biofilm relative to PYY13-36 | inhibition of biofilm formation (crystal violet staining, 10-20 uM of respective peptides)
1 | PEELNRYYASLRHYLNLVTRQRA [AVpeptide 3, (14-36, Y36A)] | 1.00 and 0.94 | 0.90 and 0.93 | 0.91 | – | – | –
2 | SPEELNRYYASLRHYINLVTRQRY [AVpeptide 29, (L28I)] | 0.58 | 0.04 | – | – | – | –
3 | YPEEYNRYYASYRHYLNHVTRQRY [AVpeptide 16, (S13Y L17Y L24Y L30H)] | 1.06 | 1.02 | 0.95 | – | – | –
4 | LPDELNRYYASLRKYLNLVTRQRY [AVpeptide 25, (S13L, E15D, H26K)] | – | 0.01 and 0.02 | – | greatly inhibited biofilm formation by C. albicans at concentrations lower than PYY13-36 | increased inhibition of biofilm formation | –
5 | SPEELNKYYASLRHYLNLVTRQRY [AVpeptide 27, (R19K)] | 0.66 | 0.08 | – | – | – | –
6 | SPEELNRYYASLRHYLNLVTRQVY [AVpeptide 8, (R35V)] | 0.97 | 0.71 | 0.31 | – | reduced efficacy | –
7 | SPEELNRYYASLRHYLNLVTRQLR [AVpeptide 6] | 0.97 | 0.52 | 0.28 | – | reduced efficacy | –
8 | ASPEELNRYYASLRHYLNLVTRQRY [AVpeptide 18, (12-36)] | 1.11 | 0.16 | 0.05 | – | – | –
9 | LPEELNRYYASLRHYLRLVTRQLY [AVpeptide 23, (S13L, N29R, R35L)] | 0.03 | – | – | greatly inhibited biofilm formation by C. albicans at concentrations lower than PYY13-36 | increased inhibition of biofilm formation | –
10 | SPEELNRYYTALRHYLNLVTRQRY [AVpeptide 30, (A22T, S23A)] | 0.16 and 0.10 | 0.02 | – | – | – | –
11 | SPEELNRYYLALRHYLNLVTRQRY [AVpeptide 31, (A22L, S23A)] | 0.05 | 1.00 | – | – | – | –
12 | PEELNRYYASLRHYLNLVTRQLY [AVpeptide 1, (14-36; R35L)] | 0.96 and 0.95 | 0.74 and 0.40 | 0.14 | – | – | –
13 | LPEELNRYYASLRHYLNLVTRQRY [AVpeptide 10, (S13L)] | – | – | 0.17 | – | – | –
14 | SPEQLNRYYASLRHYLNLVTRERY [AVpeptide 13, (E16Q, Q34A)] | 0.95 | 0.14 | 0.07 | – | – | –
15 | SPEELNRYYLSLRHYLNLVTRQRY [AVpeptide 20, (A22L)] | 0.47 and 0.52 and 0.62 | 1.07 and 1.25 and 1.03 | 1.04 | – | increased inhibition of biofilm formation | –
16 | SPEELNRYYASLRHYLNLVTRQRR [AVpeptide 5, (Y36R)] | 0.64 and 0.76 | 0.28 and 0.53 | – | – | – | –
17 | PYY 1-36 Modified: PYY with charge modified by replacing Arginine with Alanine (YPIKPEAPGEDASPEELNAYYASLAHYLNLVTAQAY; ends and bridges not checked) [reference compound] | – | – | – | – | – | reduced the inhibitory effect

Reference: patent US12240890B2, “Compositions and methods for treating and/or preventing pathogenic fungal infection and for maintenance of microbiome commensalism” (priority 2017, dated 2025)
